Test results reported in US20220089602A1, “COMPOUNDS THAT INDUCE FERROPTIC CELL DEATH” (The Board of Trustees of the University of Illinois, priority 2019, published 2022).

Legend:
[1] = target: T1, TXNRD2 (Homo sapiens, UniProt Q9NNW7); test: Biotin-streptavidin pulldown with P29, competition by ferroptocide, LC/LC-MS/MS; format: binding; details: DMSO/ferroptocide spectral count ratio of P29-labeled enriched proteins
T1 construct: HCT 116 cells were pre-treated with ferroptocide or DMSO, followed by treatment with P29; endogenous in cells; host or cells: HCT 116 (and ES-2) cells
Description: (§1) ES-2 and HCT 116 (20×10^6 cells/flask) were plated in T175 flasks and treated with DMSO or 20 µM ferroptocide for 1 hr followed by treatment with 20 μM P29 for 1 hr. Cells were lysed via sonication (6500 g, 4 min) in DPBS and the soluble proteome was isolated after […] (45000 g, 45 min). Bradford assay was used to determine protein concentration. The soluble protein lysates in DPBS (pH 7.4) (500 μL, 2 mg/mL) were treated with biotin-azide (100 μM, 50× stock in DMSO), TCEP (1 mM, 50× fresh stock in water), TBTA ligand (100 μM, 17× stock in DMSO:t-butanol=1:4), and copper(II) sulfate (1 mM, 50× stock in water) followed by incubation at r.t. for 1 hr. Samples were centrifuged (6500 g, 4 min, 4° C.) and the supernatant was discarded. The pellets were resuspended in cold methanol by sonication (2×) and then were solubilized in DPBS containing 1.2% SDS via sonication and heating (90° C., 5 min). A final SDS concentration of 0.2% was achieved after addition of 5 mL of DPBS to the SDS-solubilized proteome samples. The solution was incubated overnight at 4° C. with 100 μL of streptavidin-agarose beads (ThermoFisher, washed 3× with DPBS to remove storage buffer). Samples were rotated at 22° C. for 2 hr before being washed by 5 mL 0.2% SDS/DPBS, 3×5 mL DPBS, and 3×5 mL water. The beads were pelleted by centrifugation (1400×g, 3 min) between washes.
(§2) The washed beads were suspended in 500 μL of 6 M urea/DPBS and 10 mM DTT (from 20× stock in water) and heated for 20 min on a 65° C. heat block. Upon addition of iodoacetamide (20 mM from 50× stock in water), samples were allowed to react at 37° C. for 30 min while shaking. Following reduction and alkylation, the beads were pelleted by centrifugation and resuspended in 200 μL of 2 M urea/DPBS, 1 mM CaCl2) (100× stock in water), and sequencing-grade trypsin (2 μg). The bead digestion occurred overnight at 37° C. while shaking. Next day, the beads were pelleted by centrifugation and washed with 2×50 μL water. The washes were combined with the supernatant from the trypsin digestion step, and after addition of formic acid (15 μL) to each sample, they were stored at −20° C. until mass spectrometry analysis.
(§3) LC/LC-MS/MS analysis was performed on an LTQ-Orbitrap Discovery mass spectrometer (ThermoFisher) coupled to an Agilent 1200 series HPLC. Peptide digests were pressure loaded onto a 250 m fused silica desalting column packed with 4 cm of Aqua C18 reverse phase resin (Phenomenex). The peptides were eluted onto a biphasic column (100 m fused silica with a 5, tip, packed with 10 cm C18 and 4 cm Partisphere strong cation exchange resin (SCX, Whatman) using a gradient 5-100% Buffer B in Buffer A (Buffer A: 95% water, 5% acetonitrile, 0.1% formic acid; Buffer B: 20% water, 80% acetonitrile, 0.1% formic acid). The peptides were then eluted from the SCX onto the C18 resin and into the mass spectrometer using 4 salt steps previously described (Nat. Protoc. 2, 1414-1425, (2007)). The flow rate through the column was set to ˜0.25 μL/min and the spray voltage was set to 2.75 kV. One full MS scan (FTMS) (400-1800 MW) was followed by 8 data dependent scans (ITMS) of the n^th most intense ions. The tandem MS data were searched using the SEQUEST algorithm using a concatenated target/decoy variant of the human UniProt database. A static modification of +57.02146 on cysteine was specified to account for alkylation by iodoacetamide. MS2 spectra matches were assembled into protein identifications and filtered using DTASelect2.0 to generate a list of protein hits with a peptide false-discovery rate of 5%. The mass spectrometry proteomics data have been deposited to the ProteomeXchange Consortium via the PRIDE [1] partner repository with the dataset identifier PXD012805.

[2] = target: T2, TXNRD1 (Homo sapiens, UniProt Q16881); test: as above; format: binding; details: DMSO/ferroptocide spectral count ratio of P29-labeled enriched proteins
T2 construct: HCT 116 cells were pre-treated with ferroptocide or DMSO, followed by treatment with P29; endogenous in cells; host or cells: HCT 116 (and ES-2) cells
Description: as §1, §2, §3

[3] = target: T3, TXN (Homo sapiens, UniProt P10599); test: as above; format: binding; details: DMSO/ferroptocide spectral count ratio of P29-labeled enriched proteins
T3 construct: endogenous in cells; host or cells: HCT 116 (and ES-2) cells
Description: as §1, §2, §3

[4] = target: T4, GSTO1 (Homo sapiens, UniProt P78417); test: as above; format: binding; details: DMSO/ferroptocide spectral count ratio of P29-labeled enriched proteins
T4 construct: endogenous in cells; host or cells: HCT 116 (and ES-2) cells
Description: as §1, §2, §3

[5] = target: T5, TXNRD3 (Homo sapiens, UniProt Q86VQ6); test: as above; format: binding; details: DMSO/ferroptocide spectral count ratio of P29-labeled enriched proteins
T5 construct: endogenous in cells; host or cells: HCT 116 (and ES-2) cells
Description: as §1, §2, §3

[6] = target: T6, PDP1 (Homo sapiens, UniProt Q9P0J1); test: as above; format: binding; details: DMSO/ferroptocide spectral count ratio of P29-labeled enriched proteins
T6 construct: endogenous in cells; host or cells: HCT 116 (and ES-2) cells
Description: as §1, §2, §3

[7] = target: T7, KEAP1 (Homo sapiens, UniProt Q14145); test: as above; format: binding; details: DMSO/ferroptocide spectral count ratio of P29-labeled enriched proteins
T7 construct: endogenous in cells; host or cells: HCT 116 (and ES-2) cells
Description: as §1, §2, §3

[8] = target: T8, PGLS (Homo sapiens, UniProt O95336); test: as above; format: binding; details: DMSO/ferroptocide spectral count ratio of P29-labeled enriched proteins
T8 construct: endogenous in cells; host or cells: HCT 116 (and ES-2) cells
Description: as §1, §2, §3

[9] = test system: Mia PaCa-2 cells; test: Speed of cell death, AV/PI flow cytometry; format: cell-based; details: 10 μM, Mia PaCa-2, AV/PI
Description: (§4) ES-2, HCT 116, Mia PaCa-2, A549, and 4T1 cells (1×10^5 cells/mL) were plated overnight in 12 well plates, prior to addition of compounds. For protection studies, samples were pre-treated with each protecting agent such as 25 μM Q-VD-OPh, 250 μM trolox, 2 μM ferrostatin-1, 5 mM NAC-1 (neutralized pH), or 100 μM deferoxamine (DFO) for two hours or 1 hr (NAC-1) before compound addition. Cells were incubated for the appropriate times and harvested for flow cytometry analysis. Cell pellets were resuspended in binding buffer (10 mM HEPES, pH 7.4, 140 mM NaCl, 2.5 mM CaCl2) containing 2 μg/mL propidium iodide and 5 μL/mL Annexin V-FITC conjugate antibody and analyzed for cell viability after gating for forward and side scattering. Ten thousand events were collected per sample in BD LSR II Flow Cytometer (BD Bioscience) and FCS express V6, De Novo software was used to perform experimental analysis.

[10] = test system: A549 cells; test: Speed of cell death, AV/PI flow cytometry; format: cell-based; details: each at 10 μM, A549 (K-RAS mutant)
Description: as §4

[11] = test system: ES-2 cells; test: Speed of cell death, AV/PI flow cytometry; format: cell-based; details: 10 μM, ES-2, AV/PI
Description: as §4

[12] = test system: HCT 116 cells; test: Speed of cell death, AV/PI flow cytometry; format: cell-based
Description: as §4

T3 sequence (P10599 whole entry): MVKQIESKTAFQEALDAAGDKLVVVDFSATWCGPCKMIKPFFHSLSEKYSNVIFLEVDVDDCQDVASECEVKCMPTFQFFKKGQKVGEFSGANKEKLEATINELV
T6 sequence (Q9P0J1 72-537): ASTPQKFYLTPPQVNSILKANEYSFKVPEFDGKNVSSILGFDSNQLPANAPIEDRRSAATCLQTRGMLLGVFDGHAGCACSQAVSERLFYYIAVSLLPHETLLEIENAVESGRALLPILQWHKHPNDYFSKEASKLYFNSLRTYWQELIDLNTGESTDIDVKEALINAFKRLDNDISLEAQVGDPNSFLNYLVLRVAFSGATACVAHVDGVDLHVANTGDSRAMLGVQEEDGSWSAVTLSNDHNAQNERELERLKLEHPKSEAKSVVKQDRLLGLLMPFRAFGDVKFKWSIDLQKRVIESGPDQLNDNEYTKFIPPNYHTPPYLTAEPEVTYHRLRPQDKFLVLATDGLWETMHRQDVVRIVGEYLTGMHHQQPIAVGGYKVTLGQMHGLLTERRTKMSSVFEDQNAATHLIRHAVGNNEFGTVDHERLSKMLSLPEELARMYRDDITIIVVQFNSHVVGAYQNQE
T8 sequence (O95336 whole entry): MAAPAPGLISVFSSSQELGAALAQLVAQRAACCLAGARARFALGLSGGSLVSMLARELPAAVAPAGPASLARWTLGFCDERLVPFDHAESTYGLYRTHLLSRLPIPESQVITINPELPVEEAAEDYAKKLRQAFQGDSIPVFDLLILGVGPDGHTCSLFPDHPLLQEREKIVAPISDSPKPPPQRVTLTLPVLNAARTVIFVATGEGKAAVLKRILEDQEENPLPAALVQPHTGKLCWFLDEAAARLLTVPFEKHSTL
T2 sequence (Q16881 151-649 limits assumed): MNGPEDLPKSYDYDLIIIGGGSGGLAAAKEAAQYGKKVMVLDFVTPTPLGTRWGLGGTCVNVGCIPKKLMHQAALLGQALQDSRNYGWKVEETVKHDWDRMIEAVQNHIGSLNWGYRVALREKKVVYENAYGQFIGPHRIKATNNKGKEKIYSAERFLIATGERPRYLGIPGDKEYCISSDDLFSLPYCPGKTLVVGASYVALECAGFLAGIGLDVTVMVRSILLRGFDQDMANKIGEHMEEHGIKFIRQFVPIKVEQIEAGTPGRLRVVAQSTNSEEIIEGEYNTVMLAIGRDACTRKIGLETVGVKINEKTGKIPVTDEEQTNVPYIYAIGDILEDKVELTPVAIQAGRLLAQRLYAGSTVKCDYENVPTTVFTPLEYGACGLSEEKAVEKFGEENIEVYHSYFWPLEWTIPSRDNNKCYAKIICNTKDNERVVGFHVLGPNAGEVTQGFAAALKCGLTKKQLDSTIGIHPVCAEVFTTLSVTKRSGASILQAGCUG
T7 sequence (Q14145 whole entry): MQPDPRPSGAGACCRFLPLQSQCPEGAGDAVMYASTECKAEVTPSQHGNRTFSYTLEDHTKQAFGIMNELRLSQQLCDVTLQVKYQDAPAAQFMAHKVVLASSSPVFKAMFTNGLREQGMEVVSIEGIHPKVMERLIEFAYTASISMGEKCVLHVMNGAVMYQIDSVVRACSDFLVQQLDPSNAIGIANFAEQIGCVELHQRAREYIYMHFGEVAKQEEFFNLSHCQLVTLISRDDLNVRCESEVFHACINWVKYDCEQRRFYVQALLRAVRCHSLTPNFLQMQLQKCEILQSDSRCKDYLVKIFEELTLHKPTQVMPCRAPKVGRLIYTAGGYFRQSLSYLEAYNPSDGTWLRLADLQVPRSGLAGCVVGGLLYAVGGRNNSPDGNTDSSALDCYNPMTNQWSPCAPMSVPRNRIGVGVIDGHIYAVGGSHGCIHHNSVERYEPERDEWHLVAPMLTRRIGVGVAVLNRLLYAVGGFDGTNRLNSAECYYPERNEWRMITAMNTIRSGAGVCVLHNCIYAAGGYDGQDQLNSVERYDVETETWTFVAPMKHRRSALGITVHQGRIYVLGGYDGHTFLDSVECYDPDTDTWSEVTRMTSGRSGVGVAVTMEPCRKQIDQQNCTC
T4 sequence (P78417 whole entry): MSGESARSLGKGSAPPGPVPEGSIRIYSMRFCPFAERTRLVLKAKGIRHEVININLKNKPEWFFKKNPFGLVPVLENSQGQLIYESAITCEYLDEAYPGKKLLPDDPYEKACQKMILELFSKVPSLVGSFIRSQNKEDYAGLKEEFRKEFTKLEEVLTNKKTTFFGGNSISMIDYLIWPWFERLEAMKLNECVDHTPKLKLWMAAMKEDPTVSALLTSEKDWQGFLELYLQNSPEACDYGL
T5 sequence (Q86VQ6 whole entry): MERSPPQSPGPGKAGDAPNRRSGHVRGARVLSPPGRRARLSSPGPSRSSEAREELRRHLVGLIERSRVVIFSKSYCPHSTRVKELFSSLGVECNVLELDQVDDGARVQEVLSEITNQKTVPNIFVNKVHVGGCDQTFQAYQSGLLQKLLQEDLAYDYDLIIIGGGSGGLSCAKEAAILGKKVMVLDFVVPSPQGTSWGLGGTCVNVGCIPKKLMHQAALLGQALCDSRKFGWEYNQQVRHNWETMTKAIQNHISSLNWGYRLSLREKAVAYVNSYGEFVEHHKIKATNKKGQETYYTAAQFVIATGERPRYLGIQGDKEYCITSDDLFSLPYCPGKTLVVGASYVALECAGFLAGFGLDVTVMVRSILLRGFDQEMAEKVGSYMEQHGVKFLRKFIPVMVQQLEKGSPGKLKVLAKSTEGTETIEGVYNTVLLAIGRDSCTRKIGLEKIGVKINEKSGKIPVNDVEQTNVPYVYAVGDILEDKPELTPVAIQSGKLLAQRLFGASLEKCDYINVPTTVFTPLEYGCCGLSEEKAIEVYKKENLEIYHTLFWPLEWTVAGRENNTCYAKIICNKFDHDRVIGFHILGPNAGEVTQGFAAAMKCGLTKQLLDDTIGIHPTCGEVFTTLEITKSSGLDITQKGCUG
T1 sequence (Q9NNW7 37-524): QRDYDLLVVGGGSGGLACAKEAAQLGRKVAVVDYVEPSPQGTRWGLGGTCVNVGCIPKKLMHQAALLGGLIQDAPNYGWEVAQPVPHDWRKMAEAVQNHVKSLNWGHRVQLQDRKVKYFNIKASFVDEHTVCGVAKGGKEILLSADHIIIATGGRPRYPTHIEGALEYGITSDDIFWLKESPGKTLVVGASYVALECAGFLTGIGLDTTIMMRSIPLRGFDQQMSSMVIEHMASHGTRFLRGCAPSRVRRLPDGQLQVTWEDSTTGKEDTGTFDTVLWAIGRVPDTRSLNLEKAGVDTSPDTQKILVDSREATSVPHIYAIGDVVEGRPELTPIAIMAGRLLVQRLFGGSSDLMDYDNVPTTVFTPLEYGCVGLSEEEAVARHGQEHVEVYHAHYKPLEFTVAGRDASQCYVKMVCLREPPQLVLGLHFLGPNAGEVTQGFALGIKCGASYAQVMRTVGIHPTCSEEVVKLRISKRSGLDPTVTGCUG

SMILES: C[C@@H]1CC[C@@]23C[C@H](O)C(=O)[C@@]2(O)[C@]1(C)[C@H](OC(=O)CCl)C[C@@H](C1=CCn2c(=O)n(-c4ccccc4)c(=O)n2C1)[C@@H]3C [Compound P18, ferroptocide]
- Fold Change [1]: 2
- Fold Change [2]: 4.9
- Fold Change [3]: 11.1
- Fold Change [4]: 3.6
- Fold Change [5]: 7.4
- Fold Change [6]: 3.7
- Fold Change [7]: 3.1
- Fold Change [8]: 2.7
- time to 50% cell death ([9]; listed as Ferroptocide): 2 h
- time to 50% cell death ([9]; listed as ferroptocide): 1.5 h
- cell death versus erastin and RSL3 [10]: inducing more quantitative cell death than the other tool compounds
- time to 50% cell death [11]: 1 h
- time to 50% cell death ([12]; 10 μM, HCT 116, AV/PI): 7 h
- cell death versus erastin and RSL3 ([12]; each at 10 μM, HCT 116 (K-RAS mutant)): inducing more quantitative cell death than the other tool compounds
